For this assay, the system named is IL-12 production in human PBMC or THP-1 cells. The experiment in a line: In vitro inhibition of IL-12 production in stimulated human PBMC or THP-1 cells (ELISA). It counts as cell-based. The note with it: representative in vitro IC50 data. The text has this:
The biological activities of a heterocyclic compound can be evaluated by a number of cell-based assays. One of such assays can be conducted using cells from human peripheral blood mononuclear cells (PBMC) or human monocytic cell line (THP-1). The cells are stimulated with a combination of human interferon-γ (IFNγ) and lipopolysaccharide or a combination of IFNγ and Staphylococcus aureus Cowan I in the presence of a test compound. The level of inhibition of IL-12 production can be measured by determining the amount of p70 by using a sandwich ELISA assay with anti-human IL-12 antibodies. IC50 of the test compound can then be determined. Specifically, PBMC or THP-1 cells are incubated with the test compound. Cell viability was assessed using the bioreduction of MTS [3-(4,5-dimethylthiazol-2-yl)-5-(3-carboxymethoxyphenyl)-2-(4-sulfophenyl)-2H-tetrazolium] (Promega, Madison, Wis.).
Reagents. Staphylococcus aureus Cowan I (SAC) was obtained from Calbiochem (La Jolla, Calif.), and lipopolysaccharide (LPS, Serratia marscencens) was obtained from Sigma (St. Louis, Mo.). Human and mouse recombinant IFNγ were purchased from Boehringer Mannheim (Mannheim, Germany) and Pharmingen (San Diego, Calif.), respectively.
Human In Vitro Assay. Human PBMC were isolated by centrifugation using Ficoll-Paque (Pharmacia Biotech, Uppsala, Sweden) and prepared in RPMI medium supplemented with 10% fetal calf serum (FCS), 100 U/mL penicillin, and 100 μg/mL streptomycin. PBMC were plated in wells of a 96-well plate at a concentration of 5×10^5 cells/well, and primed by adding IFNγ (30 U/mL) for 22 h and stimulated by adding LPS (1 μg/mL), or by adding IFNγ (100 U/mL) and then stimulated by adding SAC (0.01%). A test pyrimidine compound was dissolved in DMSO, and added to wells of the 96-well plate. The final DMSO concentration was adjusted to 0.25% in all cultures, including the compound-free control. Human THP-1 cells were plated in wells, primed by adding IFNγ (100 U/mL) for 22 h and stimulated by adding SAC (0.025%) in the presence of different concentrations of the pyrimidine compound. Cell-free supernatants were taken 18 h later for measurement of cytokines. Cell viability was assessed using the bioreduction of MTS. Cell survival was estimated by determining the ratio of the absorbance in compound-treated groups versus compound-free control.
The supernatant was assayed for the amount of IL-12p40, IL-12p70, or IL-10 by using a sandwich ELISA with anti-human antibodies, i.e., a Human IL-12 p40 ELISA kit from R&D Systems (Berkeley, Calif.), and a Human IL-12 p70 or IL-10 ELISA kit from Endogen (Cambridge, Mass.). Assays were based on the manufacturer's instructions.
The biological activities of pyrimidine compounds were tested on human PBMC or THP-1 cells. Unexpectedly, some of the test compounds have IC50 values as low as <1 nM.
For orientation: In an ELISA, binding on a coated surface is turned into a signal by an enzyme label.

In the case of `COC(=O)c1ccc(NC(=O)OCCc2nc(N/N=C/c3cccc(C)c3)cc(N3CCOCC3)n2)cc1` [Compound 23, 4-(2-{4-[N′-(3-Methyl-benzylidene)-hydrazino]-6-morpholin-4-yl-pyrimidin-2-yl}-ethoxycarbonylamino)-benzoic acid methyl ester], the IC50 is less than 0.025 µM.
Regarding `Cc1ccc(NC(=O)OC(C)(C)Cc2nc(N/N=C/c3cccc(C)c3)cc(N3CCOCC3)n2)cc1` [Compound 16, p-Tolyl-carbamic acid 1,1-dimethyl-2-{4-[N′-(3-methyl-benzylidene)-hydrazino]-6-morpholin-4-yl-pyrimidin-2-yl}-ethyl ester], the 50% inhibitory concentration (IC50) is less than 0.025 µM.
As to `Cc1cccc(/C=N/Nc2cc(N3CCOCC3)nc(CCOC(=O)Nc3ccc(C(C)C)cc3)n2)c1` [Compound 20, (4-Isopropyl-phenyl)-carbamic acid 2-{4-[N′-(3-methyl-benzylidene)-hydrazino]-6-morpholin-4-yl-pyrimidin-2-yl}-ethyl ester], the concentration for half-maximal inhibition (IC50) was more than 0.05 µM.
For `Cc1cccc(/C=N/Nc2cc(N3CCOCC3)nc(CCCOC(=O)NC3CCCCC3)n2)c1` [Compound 5, Cyclohexyl-carbamic acid 3-{4-[N′-(3-methyl-benzylidene)-hydrazino]-6-morpholin-4-yl-pyrimidin-2-yl}-propyl ester], the half-inhibitory concentration (IC50) is less than 0.025 µM.
Consider `Cc1cccc(/C=N/Nc2cc(N3CCOCC3)nc(OCCOC(=O)Nc3cccnc3)n2)c1` [Compound 106, Pyridin-3-yl-carbamic acid 2-{4-[N′-(3-methyl-benzylidene)-hydrazino]-6-morpholin-4-yl-pyrimidin-2-yloxy}-ethyl ester], for which the IC50 was less than 0.025 µM.
For the compound `Cc1cccc(/C=N/Nc2cc(N3CCOCC3)nc(CCOC(=O)Nc3ccc([N+](=O)[O-])cc3)n2)c1` [Compound 15, (4-Nitro-phenyl)-carbamic acid 2-{4-[N′-(3-methyl-benzylidene)-hydrazino]-6-morpholin-4-yl-pyrimidin-2-yl}-ethyl ester], the 50% inhibitory concentration (IC50) is less than 0.025 µM.
In the case of `Cc1cccc(/C=N/Nc2cc(N3CCOCC3)nc(CCNS(=O)(=O)N(C)C)n2)c1` [Compound 54, 1,1-Dimethyl-3-(2-{4-[N′-(3-methyl-benzylidene)-hydrazino]-6-morpholin-4-yl-pyrimidin-2-yl}-ethyl)-sulfamide], the IC50 is less than 0.025 µM.

For orientation: IC50 means the concentration needed to halve the response being measured.

The values above are taken from patent US7872005B2, “2-substituted heteroaryl compounds” (Synta Pharmaceuticals Corporation, priority 2004, dated 2011).
